Laboratory results from patent US20240199587A1, “HETEROCYCLIC COMPOUNDS” (Hoffmann-La Roche Inc., priority 2021, published 2024).

biological target: T1, MAGL (Homo sapiens, UniProt Q99685); assay: 2-AG assay (MAGL inhibitory activity, hydrolysis of 2-arachidonoylglycerol to arachidonic acid followed by mass spectrometry); assay type: biochemical; settings: 8 μM 2-arachidonoylglycerol, 15 min pre-incubation, 30 min incubation at RT, RapidFire MS readout
T1 sequence (Q99685 1-303): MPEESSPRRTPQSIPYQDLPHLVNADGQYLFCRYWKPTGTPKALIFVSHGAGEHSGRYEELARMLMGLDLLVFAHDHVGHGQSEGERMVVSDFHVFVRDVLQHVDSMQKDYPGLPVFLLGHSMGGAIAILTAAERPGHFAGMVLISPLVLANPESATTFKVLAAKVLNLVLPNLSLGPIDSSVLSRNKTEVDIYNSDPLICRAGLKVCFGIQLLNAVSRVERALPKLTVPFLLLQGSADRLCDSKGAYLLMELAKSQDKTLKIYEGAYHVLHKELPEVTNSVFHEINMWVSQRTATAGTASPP
Source text: Compounds of formula (I) were profiled for MAGL inhibitory activity by determining the enzymatic activity by following the hydrolysis of the natural substrate 2-arachidonoylglycerol (2-AG) resulting in arachidonic acid, which can be followed by mass spectrometry. This assay is hereinafter abbreviated “2-AG assay”.
Compounds of formula (I) were profiled for MAGL inhibitory activity by determining the enzymatic activity by following the hydrolysis of the natural substrate 2-arachidonoylglycerol (2-AG) resulting in arachidonic acid, which can be followed by mass spectrometry. This assay is hereinafter abbreviated “2-AG assay”. The 2-AG assay was carried out in 384 well polypropylene assay plates. […] Compound dilutions were added to MAGL protein in assay buffer (50 mM TRIS, 1 mM EDTA, 0.01% (v/v) Tween-20, 2.5% (v/v) DMSO). After shaking, the plate was incubated for 15 min at RT. To start the reaction, 2-arachidonoylglycerol in assay buffer was added. The final concentrations in the assay was […] for MAGL protein and 8 μM 2-arachidonoylglyerol. After shaking and 30 min incubation at RT, the reaction was quenched by the addition of two assay volumes of acetonitrile containing 4 μM of d8-arachidonic acid. The amount of arachidonic acid formed was traced by an online SPE system (Agilent Rapidfire) coupled to a triple quadrupole mass spectrometer. A C18 SPE cartridge (Agilent G9205A) was used in an acetonitrile/water liquid setup. The mass spectrometer was operated in negative electrospray mode following the mass transitions 303.1→259.1 for arachidonic acid and 311.1→267.0 for d8-arachidonic acid. The activity of the compounds was calculated based on the ratio of intensities [arachidonic acid/d8-arachidonic acid].

| IC50 | Structure (SMILES) |
| --- | --- |
| 154 nM | O=C(N1CC2(CC(Cc3cnc(C(F)(F)F)cn3)C2)C1)N1CC2(CC(c3ccc(C(F)(F)F)nc3)C2)C1 [Example 519, [6-[[5-(trifluoromethyl)pyrazin-2-yl]methyl]-2-azaspiro[3.3]heptan-2-yl]-[6-[6-(trifluoromethyl)-3-pyridyl]-2-azaspiro[3.3]heptan-2-yl]methanone] |
| 97.3 nM | NC(=O)C(c1ccc(F)cc1)C1CCN(C(=O)N2CC3(CC(n4cnc(C5CC5)n4)C3)C2)CC1 (single isomer, unassigned) [Example 301] |
| 0.3 nM | O=C(N1CC(OCc2ccc(S(F)(F)(F)(F)F)cc2F)C1)N1CC2(CC(n3cnc(C4CC4)n3)C2)C1 [Example 49] |
| 11.5 nM | O=C(N1CC(C#Cc2ccccc2C(F)F)C1)N1CC2(CC(n3cnc(C4CC4)c3)C2)C1 [Example 139, [6-(4-cyclopropylimidazol-1-yl)-2-azaspiro[3.3]heptan-2-yl]−[3-[2-[2-(difluoromethyl)phenyl]ethynyl]azetidin-1-yl]methanone] |
| 8.72 nM | O=C(N1CC2(CCC(Cc3ncc(F)cc3F)C2)C1)N1CC2(CC(n3cnc(C4(O)CC4)n3)C2)C1 (centres unmarked) [Example 388, [6-[(3,5-difluoro-2-pyridyl)methyl]-2-azaspiro[3.4]octan-2-yl]-[6-[3-(1-hydroxycyclopropyl)-1,2,4-triazol-1-yl]-2-azaspiro[3.3]heptan-2-yl]methanone] |
| 10.3 nM | CS(=N)(=O)c1cccc(CC2CC3(C2)CN(C(=O)N2CC4(CC(n5cnc(C(F)(F)F)n5)C4)C2)C3)c1 (centres unmarked) [Example 431, [6-[[3-(methylsulfonimidoyl)phenyl]methyl]-2-azaspiro[3.3]heptan-2-yl]-[6-[3-(trifluoromethyl)-1,2,4-triazol-1-yl]-2-azaspiro[3.3]heptan-2-yl]methanone] |
| 23.1 nM | O=C(N1CC2(CC(n3cnc(C4CC4)n3)C2)C1)N1CC2(C1)CN(S(=O)(=O)NC1(C(F)(F)F)CC1)C2 [Example 260, 6-[6-(3-cyclopropyl-1,2,4-triazol-1-yl)-2-azaspiro[3.3]heptane-2-carbonyl]-N-[1-(trifluoromethyl)cyclopropyl]-2,6-diazaspiro[3.3]heptane-2-sulfonamide] |
| 602 nM | O=C(N1CC(n2cc(OCC(F)(F)F)cn2)C1)N1CC2(CC(n3cnc(C4CC4)c3)C2)C1 [Example 144, [6-(4-cyclopropylimidazol-1-yl)-2-azaspiro[3.3]heptan-2-yl]-[3-[4-(2,2,2-trifluoroethoxy)pyrazol-1-yl]azetidin-1-yl]methanone] |
| 43.7 nM | CCc1cn(C2CC3(C2)CN(C(=O)c2ccc(-c4noc(C(C)(C)C)n4)cc2)C3)cn1 [Example 157, [4-(5-tert-butyl-1,2,4-oxadiazol-3-yl)phenyl]-[6-(4-ethylimidazol-1-yl)-2-azaspiro[3.3]heptan-2-yl]methanone] |
| 78 nM | NS(=O)(=O)c1ccc(C2CN(C(=O)N3CC4(CC(n5cnc(C6CC6)n5)C4)C3)C2)cc1 [Example 293, 4-[1-[6-(3-cyclopropyl-1,2,4-triazol-1-yl)-2-azaspiro[3.3]heptane-2-carbonyl]azetidin-3-yl]benzenesulfonamide] |
| 4.57 nM | O=C(N1CC2(CC(n3cnc(C4CC4)n3)C2)C1)N1CC2(CC(n3cnc(C4CC4)n3)C2)C1 [Example 510, bis[6-(3-cyclopropyl-1,2,4-triazol-1-yl)-2-azaspiro[3.3]heptan-2-yl]methanone] |
| 1.2 nM | O=C(N1CC(Oc2ccc(Cl)c(C3CC3)c2)C1)N1CC2(CC(n3cnc(C4CC4)n3)C2)C1 [Example 95, (3-(4-chloro-3-cyclopropylphenoxy)azetidin-1-yl)(6-(3-cyclopropyl-1H-1,2,4-triazol-1-yl)-2-azaspiro[3.3]heptan-2-yl)methanone] |
| 32.2 nM | CC1(NS(=O)(=O)N2CC3(CN(C(=O)N4CC5(CC(n6cnc(C7CC7)n6)C5)C4)C3)C2)CC1 [Example 269, 6-[6-(3-cyclopropyl-1,2,4-triazol-1-yl)-2-azaspiro[3.3]heptane-2-carbonyl]-N-(1-methylcyclopropyl)-2,6-diazaspiro[3.3]heptane-2-sulfonamide] |
| 10.4 nM | N#Cc1cc(C(F)(F)F)ccc1O[C@H]1C[C@@H]2CN(C(=O)N3CC4(CC(n5cnc(C6CC6)n5)C4)C3)C[C@@H]2C1 [Example 114, 2-[[rac-(3aS,6aR)-2-[6-(3-cyclopropyl-1,2,4-triazol-1-yl)-2-azaspiro[3.3]heptane-2-carbonyl]-3,3a,4,5,6,6a-hexahydro-1H-cyclopenta[c]pyrrol-5-yl]oxy]-5-(trifluoromethyl) benzonitrile] |
| 314 nM | CCCS(=O)(=O)N1CC2(CN(C(=O)N3CC4(CC(n5cnc(C6CC6)n5)C4)C3)C2)C1 [Example 320, [6-(3-cyclopropyl-1,2,4-triazol-1-yl)-2-azaspiro[3.3]heptan-2-yl]-(2-propylsulfonyl-2,6-diazaspiro[3.3]heptan-6-yl)methanone] |
| 40.9 nM | O=C(N1CC(/C=C/c2cccc(F)c2)C1)N1CC2(CC(n3cnc(C4CC4)n3)C2)C1 [Example 509, [6-(3-cyclopropyl-1,2,4-triazol-1-yl)-2-azaspiro[3.3]heptan-2-yl]-[3-[(E)-2-(3-fluorophenyl)vinyl]azetidin-1-yl]methanone] |
| 8.7 nM | Cc1ccc(OC2CN(C(=O)N3CC4(CC(n5cnc(C6CC6)n5)C4)C3)C2)c(F)c1 [Example 241, (6-(3-cyclopropyl-1H-1,2,4-triazol-1-yl)-2-azaspiro[3.3]heptan-2-yl)(3-(2-fluoro-4-methylphenoxy)azetidin-1-yl)methanone] |
| 176 nM | O=C(N1CC(c2ccc(-c3ccc(Cl)cc3F)cn2)C1)N1CC2(CC(c3ccc(C(F)(F)F)nc3)C2)C1 [Example 539, [3-[5-(4-chloro-2-fluoro-phenyl)-2-pyridyl]azetidin-1-yl]-[6-[6-(trifluoromethyl)-3-pyridyl]-2-azaspiro[3.3]heptan-2-yl]methanone] |
| 19.4 nM | O=C(N1CC2(CC(n3cnc(C4CC4)n3)C2)C1)N1CC2(CN(Cc3ncc(F)cc3F)C2)C1 [Example 258, [6-(3-cyclopropyl-1,2,4-triazol-1-yl)-2-azaspiro[3.3]heptan-2-yl]-[6-[(3,5-difluoro-2-pyridyl)methyl]-2,6-diazaspiro[3.3]heptan-2-yl]methanone] |
| 1 nM | O=C(N1C[C@H]2C[C@H](Oc3ccc(F)c(C(F)(F)F)c3)C[C@H]2C1)N1CC2(CC(n3cnc(C4CC4)n3)C2)C1 [Example 120, [6-(3-cyclopropyl-1,2,4-triazol-1-yl)-2-azaspiro[3.3]heptan-2-yl]-[rac-(3aS,6aR)-5-[4-fluoro-3-(trifluoromethyl)phenoxy]-3,3a,4,5,6,6a-hexahydro-1H-cyclopenta[c]pyrrol-2-yl]methanone] |
| 698 nM | O=C(N1CC2(CC(Oc3ccc(C(F)(F)F)nc3)C2)C1)N1CC2(CC(c3ccc(C(F)(F)F)nc3)C2)C1 [Example 525, [6-[6-(trifluoromethyl)-3-pyridyl]-2-azaspiro[3.3]heptan-2-yl]-[6-[[6-(trifluoromethyl)-3-pyridyl]oxy]-2-azaspiro[3.3]heptan-2-yl]methanone] |
| 62.1 nM | O=C(N1CC(c2nnc(-c3ccc(F)cc3F)[nH]2)C1)N1CC2(CC(n3cnc(C4CC4)n3)C2)C1 [Example 289, [6-(3-cyclopropyl-1,2,4-triazol-1-yl)-2-azaspiro[3.3]heptan-2-yl]-[3-[5-(2,4-difluorophenyl)-4H-1,2,4-triazol-3-yl]azetidin-1-yl]methanone] |
| 993 nM | CNC(=O)c1ccccc1S(=O)(=O)N1CC2(CN(C(=O)N3CC4(CC(n5cnc(C6CC6)n5)C4)C3)C2)C1 [Example 334] |
| 1.1 nM | O=C(N1CC(Oc2ccc(C3CC3)nc2F)C1)N1CC2(CC(n3cnc(C4CC4)n3)C2)C1 [Example 208, [3-[(6-cyclopropyl-2-fluoro-3-pyridyl)oxy]azetidin-1-yl]-[6-(3-cyclopropyl-1,2,4-triazol-1-yl)-2-azaspiro[3.3]heptan-2-yl]methanone] |
| 24.5 nM | O=C(N1CC(c2ccc(CC(F)(F)F)cc2)C1)N1CC2(CC(n3cnc(C4CC4)n3)C2)C1 [Example 37, [6-(3-cyclopropyl-1,2,4-triazol-1-yl)-2-azaspiro[3.3]heptan-2-yl]-[3-[4-(2,2,2-trifluoroethyl)phenyl]azetidin-1-yl]methanone] |
| 170 nM | CC(C)(C)c1nc(-c2ccc(C(=O)N3CC4(CC(n5cnc(Cl)n5)C4)C3)cc2)no1 [Example 172, [4-(5-tert-butyl-1,2,4-oxadiazol-3-yl)phenyl]-[6-(3-chloro-1,2,4-triazol-1-yl)-2-azaspiro[3.3]heptan-2-yl]methanone] |
